Laboratory results reported in EP3417074B1, “ANALYTICAL METHODS AND ARRAYS FOR USE IN THE SAME” (SenzaGen AB, priority 2016, dated 2017).
Several values for one entry are separate records, joined by “and”; a condition that tells them apart may be missing. Identical values can stand only once. Entries after “also recorded” stand apart in the source; their conditions may differ. Counter-ions that a name gives are not always drawn. Like-named read-outs stand apart in the source and are kept apart here.

Columns and labels:
[1] = cited from earlier work; for binary class (HP*): Table 1, based on [41] where available, HP 1-4=S, 5-6=NS, otherwise according to CLP
MUTZ-3 cells [2] = test: GARD random forest model for prediction of CLP categories (52 transcripts, Example A); conditions: for predicted CLP: Suppl. Table 1, separate replicates in the test set; for GARD predicted CLP: Table 6, independent test set, majority voting across replicates; for CLP category predicted by the random forest model: test set, majority votes
MUTZ-3 cells [3] = test: GARD binary classification (SVM on GARD prediction signature, 200 transcripts); conditions: for GARD binary prediction: Table 1, sensitizer if median calibrated SVM DV of replicates > 0; for SVM DV: Table 8, average SVM decision value derived from triplicates
From the text: The SVM model had been developed for binary classifications (sensitizer versus non-sensitizer).

human skin = conditions: cited from earlier work; for Human potency [41]: Table 6, test set
MUTZ-3 cells [4] = test: Cytotoxicity / viability by flow cytometry (propidium iodide); conditions: Table 1, 24 hours exposure

| Compound | binary class ([1]; Table 4) | SVM DV (MUTZ-3 cells [3]) | HP (human skin; Table 4) | cytotox (MUTZ-3 cells [4]) | also measured |
| --- | --- | --- | --- | --- | --- |
| CCCCBr [1-bromobutane] | non-sens |  |  |  | predicted CLP (MUTZ-3 cells [2]): no cat; GARD predicted CLP (MUTZ-3 cells [2]): no cat |
| O=[N+]([O-])c1ccc(F)c([N+](=O)[O-])c1 [2,4-Dinitrofluorobenzene] | sens |  |  |  | binary class (HP*) [1]: S; GARD binary prediction (MUTZ-3 cells [3]): S |
| O=[N+]([O-])c1ccc(Cl)c([N+](=O)[O-])c1 [2,4-dinitrochlorobenzene] | sens | 6,31 |  |  | HP (human skin): 1; Human potency (human skin): 1; binary class ([1]; Table 2, benchmark chemicals): sens |
| Nc1ccccc1O [2-aminophenol] |  | 5,98 |  |  | HP (human skin): 2; Human potency (human skin): 2 |
| C=CC(=O)OCCO [2-hydroxyethyl acrylate] |  | 8,87 |  |  |  |
| Sc1nc2ccccc2s1 [2-mercaptobenzothiazole] | sens | 2,52 | 3 |  | Human potency (human skin; Table 8): 3 |
| Cc1cccc(O)c1O [3-Methylcatechol] | sens |  |  | yes | binary class (HP*) [1]: S; GARD binary prediction (MUTZ-3 cells [3]): S |
| O=[N+]([O-])c1ccc(CBr)cc1 [4-nitrobenzylbromide] | sens |  |  |  |  |
| Nc1ccc(C(=O)O)cc1 [PABA] |  | -1,04 |  |  | Human potency (human skin): 5 |
| CC1(C)S[C@@H]2[C@H](NC(=O)Cc3ccccc3)C(=O)N2[C@H]1C(=O)O [Penicillin G] |  | 1,06 |  |  | Human potency (human skin; Table 8): 3 |
| CC(O)CO (stereo not drawn) [Propylene glycol] |  | -1,18 |  |  | Human potency (human skin; Table 8): 5 |
| CCCCCCCC/C=C\CCCCCCCC(=O)OCCOCC(OCCO)C1OCC(OCCO)C1OCCO (stereo not drawn) [Tween 80] | non-sens | -1,39 | 6 |  | Human potency (human skin; Table 8): 6 |
| CC(C)C1=CC2=CC[C@@H]3[C@](C)(CCC[C@@]3(C)C(=O)O)[C@H]2CC1 [abietic acid] | sens |  | 3 | no | binary class (HP*) [1]: S; GARD binary prediction (MUTZ-3 cells [3]): S |
| CCCCC/C(=C/c1ccccc1)CO [amylcinnamyl alcohol] |  |  |  | yes | HP (human skin): 4; GARD binary prediction (MUTZ-3 cells [3]): S |
| O=Cc1ccccc1 [benzaldehyde] |  | -2,13 |  |  |  |
| CCOC(=O)c1ccc(N)cc1 [benzocaine] | sens |  | 4 | no | binary class (HP*) [1]: S; binary classification according to the established GARD model (MUTZ-3 cells [3]; sensitizing chemicals close to the cut-off defined by benchmark samples): misclassified |
| OCc1ccccc1 [benzyl alcohol] | non-sens |  |  | no |  |
| O=C(OCc1ccccc1)c1ccccc1 [benzyl benzoate] |  |  |  | yes | GARD binary prediction (MUTZ-3 cells [3]): S; predicted CLP (MUTZ-3 cells [2]): 1B; GARD predicted CLP (MUTZ-3 cells [2]): 1B |
| Clc1ccccc1 [chlorobenzene] |  | -1,63 |  |  | HP (human skin): 6; Human potency (human skin): 6 |
| CN(C)CCCN1c2ccccc2Sc2ccc(Cl)cc21 [chlorpromazine] | sens |  | 3 | yes | binary class (HP*) [1]: S; GARD binary prediction (MUTZ-3 cells [3]): S |
| O=CC=Cc1ccccc1 [cinnamaldehyde] |  |  |  |  | HP (human skin): 2 |

| Compound | binary class ([1]; Table 4) | SVM DV (MUTZ-3 cells [3]) | HP (human skin; Table 4) | cytotox (MUTZ-3 cells [4]) | also measured |
| --- | --- | --- | --- | --- | --- |
| OCC=Cc1ccccc1 [cinnamyl alcohol] | sens | 2,94 | 3 |  | Human potency (human skin; Table 8): 3 |
| CC(C)=CCCC(C)=CC=O [citral] | sens |  |  | yes | HP (human skin): 3; binary class (HP*) [1]: S; GARD binary prediction (MUTZ-3 cells [3]): S |
| O=C(O)CC(O)(CC(=O)O)C(=O)O [citric acid] |  |  |  | no |  |
| CC(C)=CCCC(C)CCO (stereo not drawn) [citronellol] | sens |  | 5 | no | GARD binary prediction (MUTZ-3 cells [3]): S |
| Clc1nc(Cl)nc(Cl)n1 [cyanuric chloride] | sens |  |  | yes | binary class (HP*) [1]: S; predicted CLP (MUTZ-3 cells [2]): 1B and no cat (2×); GARD predicted CLP (MUTZ-3 cells [2]): no cat; CLP category predicted by the random forest model (MUTZ-3 cells [2]): no cat; also recorded: no category |
| OCCNCCO [diethanolamine] | sens |  |  | no | HP (human skin): 5 |
| CCOC(=O)/C=C\C(=O)OCC [diethyl maleate] | sens |  | 2 |  | human potency category (human skin; Basketter et al. [41]): 2; Human potency [41] (human skin): 2; predicted CLP (MUTZ-3 cells [2]): 1A; GARD predicted CLP (MUTZ-3 cells [2]): 1A; CLP category predicted by the random forest model (MUTZ-3 cells [2]): 1A |
| CCOC(=O)c1ccccc1C(=O)OCC [diethyl phthalate] | non-sens | -2,15 |  |  | Human potency [41] (human skin): 6; HP (human skin): 6; Human potency (human skin): 6; predicted CLP (MUTZ-3 cells [2]): no cat; GARD predicted CLP (MUTZ-3 cells [2]): no cat |
| O=c1c(-c2ccccc2)c1-c1ccccc1 [diphenylcyclopropenone] | sens |  | 1 |  |  |
| NCCN [ethylenediamine] |  | 1,12 |  |  |  |
| CC(C)=CCC/C(C)=C/CO [geraniol] |  | 1,76 |  |  |  |
| O=CCCCC=O [glutaraldehyde] | sens |  | 2 | yes | Human potency [41] (human skin): 2; binary class (HP*) [1]: S; GARD binary prediction (MUTZ-3 cells [3]): S; predicted CLP (MUTZ-3 cells [2]): 1A; GARD predicted CLP (MUTZ-3 cells [2]): 1A |
| OCC(O)CO [glycerol] |  | -2,05 | 6 |  | Human potency (human skin; Table 8): 6 |
| O=CC=O [glyoxal] |  | 1,08 |  |  | HP (human skin): 2; Human potency (human skin): 2 |
| CCCCCC [hexane] | non-sens |  | 6 |  |  |
| CCCCCCOC(=O)c1ccccc1O [hexyl salicylate] | sens |  |  | yes | HP (human skin): 4; binary class (HP*) [1]: S; GARD binary prediction (MUTZ-3 cells [3]): S |
| CCCCCCC(C=O)=Cc1ccccc1 [hexylcinnamic aldehyde] | sens | 1,24 | 5 |  | HP (human skin; Table 2, benchmark chemicals): 5; Human potency (human skin; Table 8): 5; binary class ([1]; Table 2, benchmark chemicals): sens |
| Oc1ccc(O)cc1 [hydroquinone] | sens |  | 3 |  |  |
| CC(CC=O)CCCC(C)(C)O (stereo not drawn) [hydroxycitronellal] | sens |  | 4 |  |  |
| CC=Cc1ccc(O)c(OC)c1 [isoeugenol] | sens | 1,91 | 2 |  | Human potency (human skin; Table 8): 2 |
| CC(C)O [isopropanol] | non-sens | -1,37 | 5 |  | Human potency (human skin; Table 8): 5 |

| Compound | binary class ([1]; Table 4) | SVM DV (MUTZ-3 cells [3]) | HP (human skin; Table 4) | cytotox (MUTZ-3 cells [4]) | also measured |
| --- | --- | --- | --- | --- | --- |
| CCCCCCCCCCCCCC(=O)OC(C)C [isopropyl myristate] | sens |  | 5 | no |  |
| CC(O)C(=O)O (stereo not drawn) [lactic acid] |  | -2,38 |  |  | HP (human skin): 6; Human potency (human skin): 6 |
| CCCCCCCCCCCCOC(=O)c1cc(O)c(O)c(O)c1 [lauryl gallate] | sens |  | 2 |  |  |
| C=CC(C)(O)CCC=C(C)C (stereo not drawn) [linalool] | sens |  | 4 | no | Human potency [41] (human skin): 4; binary class (HP*) [1]: S; predicted CLP (MUTZ-3 cells [2]): no cat and 1B (2×); GARD predicted CLP (MUTZ-3 cells [2]): 1B |
| CCCCCC#CC(=O)OC [methyl heptine carbonate] | sens |  | 2 | yes | binary class (HP*) [1]: S; GARD binary prediction (MUTZ-3 cells [3]): S |
| COC(=O)c1ccccc1O [methyl salicylate] | non-sens | -1,53 | 5 |  | Human potency (human skin; Table 8): 5 |
| N#CCCC(Br)(C#N)CBr (stereo not drawn) [methyldibromo glutaronitrile] | sens |  | 2 |  |  |
| CCCCCCCC(=O)O [octanoic acid] | non-sens | -1,19 |  |  | Human potency (human skin; Table 8): 6; HP (human skin): 6 |
| O=C(O)c1ccc(O)cc1 [p-hydroxybenzoic acid] | non-sens |  |  |  |  |
| Nc1ccc(N)cc1 [p-phenylenediamine] | sens | 5,32 |  |  | Human potency (human skin; Table 8): 1; HP (human skin): 1; binary class ([1]; Table 2, benchmark chemicals): sens |
| Oc1c(Cl)c(Cl)c(Cl)c(Cl)c1Cl [pentachlorophenol] | sens |  |  | no | HP (human skin): 5 |
| O=CCc1ccccc1 [phenyl acetaldehyde] | sens |  |  |  |  |
| O=C(Oc1ccccc1)c1ccccc1 [phenyl benzoate] | sens |  | 3 |  |  |
| [K+].[K+].[O]=[Cr](=[O])([O-])[O][Cr](=[O])(=[O])[O-] [potassium dichromate] | sens | 8,45 | 1 |  | Human potency (human skin; Table 8): 1 |
| Oc1cccc(O)c1 [resorcinol] |  | 1,03 | 4 |  | HP (human skin; Table 2, benchmark chemicals): 4; Human potency (human skin; Table 8): 4 |
| O=C(O)c1ccccc1O [salicylic acid] |  | -1,41 |  |  | HP (human skin): 6; Human potency (human skin): 6 |
| O=C(O)C(O)C(O)C(=O)O (stereo not drawn) [tartaric acid] |  |  |  | no |  |
| CN(C)C(=S)SSC(=S)N(C)C [tetramethylthiuram disulfide] |  |  |  |  | HP (human skin): 3 |
| chloroanilin | sens |  |  |  |  |
| xylene |  |  | 6 |  | Human potency [41] (human skin): 6 |
